Consider 23 molecules from PubChem BioAssay (NCI).

“And” between values parts separate entries of the source, which are not always exact repeats. Identical values can stand only once.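 Assay format: 96-well plates, 48-hour exposure. At the TGI there is no net growth.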

The first assay has as its system MDA-MB-435. Put plainly: NCI anticancer screen, dose series, 48 h.
Molecule `CN(O)C(=O)c1cccc(Cl)c1` had a TGI above 100 µM.

In the case of `CCOP(=O)(OCC)c1c(C(=O)OC)cc(=O)[nH]c1-c1ccc(C)cc1`, the TGI was 37.4 µM.

In turn, `COC(=O)C1=C(C(=O)OC)SC2(S1)C1=C(CCCC1)SC(C(=O)OC)=C2C(=O)OC` displayed a TGI of 10 µM.

With `C1CCC2C(C1)CCCC2NC1=NCCO1` (stereo not given), the TGI was above 100 µM.

The molecule `CCC1(C)N=C(c2cnccn2)NN1c1ccc(Cl)cc1` (stereo not given) returned a TGI above 100 µM.

With `C/C=C/C(O)P1(=O)N(Cc2ccccc2)[C@@H]2CCCC[C@H]2N1Cc1ccccc1` (stereo not given in full), the TGI was above 25 µM.

The subject of a further assay is MOLT-4 leukemia. In words: NCI anticancer screen, dose series, 48 h.
In turn, `NC(=O)NNC(=O)c1nc[nH]c1[N+](=O)[O-]` yielded a TGI above 100 µM.

The molecule `O=c1[nH]/c(=C/c2ccc(OCc3ccccc3)cn2)c(=O)[nH]/c1=C/c1ccc(O)cc1` showed a TGI of 1.65 µM.

Regarding `N#C/C(=C\n1ccc(=O)[nH]c1=S)C(N)=O`, the TGI is above 100 µM.

As for `Cc1ccc(/C(O)=C/C(=O)C(=O)/C=C(\O)c2ccc(C)cc2C)c(C)c1`, the TGI came out at 4.67 µM.

Turning to `Cc1ccc([C@H]2CC(=O)C[C@H](c3ccc(C)cc3)C23C(=O)c2ccccc2C3=O)cc1`, the TGI was above 100 µM.

Turning to `O=c1c2ncn(COCCCl)c2n(-c2ccccc2)c(=S)n1-c1ccccc1`, the TGI is above 100 µM.

With `O=C(O)c1ccc(S(=O)(=O)c2ccccc2[N+](=O)[O-])cc1`, the TGI is above 10 µM.

Turning to `COc1ccc(/C=N/N=C(\N)NO)c(O)c1`, the TGI was above 10 µM.

`COC(=O)C1=CC(=O)OC1(OO)c1ccccc1` (stereo not given) displayed a TGI above 100 µM.

`O=C1NC(N/N=C/C(O)C(O)C(O)CO)=N/C1=C\c1ccco1` (stereo not given): the TGI was above 100 µM.

On to `COc1cc(CNc2ccc(SC)cc2)cc(OC)c1OC`, for which the TGI was above 100 µM.

The molecule `CN(NC(=O)c1cccs1)C1=NCCCN1` gave a TGI above 100 µM.

On to `CCCCCC(=O)NC(=S)Nc1nn[nH]n1`, for which the TGI is above 100 µM.

`CC1=NN(c2ccc(S(=O)(=O)O)cc2)C2(C1)SCC(=O)N2c1nc2ccccc2s1` (stereo not given) registered a TGI above 100 µM.

`C[C@H](N)C(=O)Nc1ccc(-c2nc3ccccc3s2)cc1` returned a TGI of 31.4 µM.

`CC(=O)O[C@H]1C#C/C=C\C#CC[C@@H]2C(=O)N[C@@H]12`: the TGI was above 100 µM.

The molecule `Cc1ccc2c(c1)[nH]c1cc(C(F)(F)F)ccc1[p+]2=O` (stereo not given) displayed a TGI of 52 µM.

With `CN(O)C(=O)c1cccc(Cl)c1`, the TGI is above 100 µM.

Regarding `CCOP(=O)(OCC)c1c(C(=O)OC)cc(=O)[nH]c1-c1ccc(C)cc1`, the TGI was determined as 20.6 µM.

Regarding `COC(=O)C1=C(C(=O)OC)SC2(S1)C1=C(CCCC1)SC(C(=O)OC)=C2C(=O)OC`, the TGI was 11.6 µM.

With `C1CCC2C(C1)CCCC2NC1=NCCO1` (stereo not given), the TGI was above 100 µM.

Molecule `CCC1(C)N=C(c2cnccn2)NN1c1ccc(Cl)cc1` (stereo not given) had a TGI above 100 µM.

Consider `C/C=C/C(O)P1(=O)N(Cc2ccccc2)[C@@H]2CCCC[C@H]2N1Cc1ccccc1` (stereo not given in full), for which the TGI is above 25 µM.

The subject of another assay is NCI-H522 lung. In words: NCI anticancer screen, dose series, 48 h.
Regarding `NC(=O)NNC(=O)c1nc[nH]c1[N+](=O)[O-]`, the TGI is above 100 µM.

`O=c1[nH]/c(=C/c2ccc(OCc3ccccc3)cn2)c(=O)[nH]/c1=C/c1ccc(O)cc1` came in with a TGI of 0.806 µM.

In turn, `N#C/C(=C\n1ccc(=O)[nH]c1=S)C(N)=O` showed a TGI above 100 µM.

On to `Cc1ccc(/C(O)=C/C(=O)C(=O)/C=C(\O)c2ccc(C)cc2C)c(C)c1`, for which the TGI worked out at 4.53 µM.

Molecule `Cc1ccc([C@H]2CC(=O)C[C@H](c3ccc(C)cc3)C23C(=O)c2ccccc2C3=O)cc1` showed a TGI of 26.5 µM.

`O=c1c2ncn(COCCCl)c2n(-c2ccccc2)c(=S)n1-c1ccccc1` showed a TGI above 100 µM.

The molecule `O=C(O)c1ccc(S(=O)(=O)c2ccccc2[N+](=O)[O-])cc1` registered a TGI above 10 µM.

The molecule `COc1ccc(/C=N/N=C(\N)NO)c(O)c1` yielded a TGI above 10 µM.

In turn, `COC(=O)C1=CC(=O)OC1(OO)c1ccccc1` (stereo not given) registered a TGI above 100 µM.

In the case of `O=C1NC(N/N=C/C(O)C(O)C(O)CO)=N/C1=C\c1ccco1` (stereo not given), the TGI was above 100 µM.

With `COc1cc(CNc2ccc(SC)cc2)cc(OC)c1OC`, the TGI was 29.3 µM and 11 µM.

Turning to `CN(NC(=O)c1cccs1)C1=NCCCN1`, the TGI was above 100 µM.

In the case of `CCCCCC(=O)NC(=S)Nc1nn[nH]n1`, the TGI is above 100 µM.

For the molecule `CC1=NN(c2ccc(S(=O)(=O)O)cc2)C2(C1)SCC(=O)N2c1nc2ccccc2s1` (stereo not given), the TGI is above 100 µM.

Consider `C[C@H](N)C(=O)Nc1ccc(-c2nc3ccccc3s2)cc1`, for which the TGI turned out to be 48 µM.

On to `CC(=O)O[C@H]1C#C/C=C\C#CC[C@@H]2C(=O)N[C@@H]12`, for which the TGI was above 100 µM.

In the case of `Cc1ccc2c(c1)[nH]c1cc(C(F)(F)F)ccc1[p+]2=O` (stereo not given), the TGI was above 100 µM.

`CN(O)C(=O)c1cccc(Cl)c1` came in with a TGI above 100 µM.

With `CCOP(=O)(OCC)c1c(C(=O)OC)cc(=O)[nH]c1-c1ccc(C)cc1`, the TGI worked out at 3.03 µM.

As to `COC(=O)C1=C(C(=O)OC)SC2(S1)C1=C(CCCC1)SC(C(=O)OC)=C2C(=O)OC`, the TGI is 4.36 µM.

Molecule `C1CCC2C(C1)CCCC2NC1=NCCO1` (stereo not given) had a TGI above 100 µM.

`CCC1(C)N=C(c2cnccn2)NN1c1ccc(Cl)cc1` (stereo not given) yielded a TGI above 100 µM.

Turning to `C/C=C/C(O)P1(=O)N(Cc2ccccc2)[C@@H]2CCCC[C@H]2N1Cc1ccccc1` (stereo not given in full), the TGI was above 25 µM.

The test system of another assay is OVCAR-3 ovarian. In words: NCI anticancer screen, dose series, 48 h.
Molecule `NC(=O)NNC(=O)c1nc[nH]c1[N+](=O)[O-]` gave a TGI above 100 µM.

Take `O=c1[nH]/c(=C/c2ccc(OCc3ccccc3)cn2)c(=O)[nH]/c1=C/c1ccc(O)cc1`: the TGI was above 76.3 µM.

Take `N#C/C(=C\n1ccc(=O)[nH]c1=S)C(N)=O`: the TGI came to 0.673 µM.

`Cc1ccc(/C(O)=C/C(=O)C(=O)/C=C(\O)c2ccc(C)cc2C)c(C)c1` yielded a TGI of 3.51 µM.

Consider `Cc1ccc([C@H]2CC(=O)C[C@H](c3ccc(C)cc3)C23C(=O)c2ccccc2C3=O)cc1`, for which the TGI is above 100 µM.

Take `O=c1c2ncn(COCCCl)c2n(-c2ccccc2)c(=S)n1-c1ccccc1`: the TGI was above 100 µM.

In the case of `O=C(O)c1ccc(S(=O)(=O)c2ccccc2[N+](=O)[O-])cc1`, the TGI was above 10 µM.

Molecule `COc1ccc(/C=N/N=C(\N)NO)c(O)c1` displayed a TGI above 10 µM.

`COC(=O)C1=CC(=O)OC1(OO)c1ccccc1` (stereo not given) registered a TGI above 100 µM.

`O=C1NC(N/N=C/C(O)C(O)C(O)CO)=N/C1=C\c1ccco1` (stereo not given) came in with a TGI above 100 µM.

With `COc1cc(CNc2ccc(SC)cc2)cc(OC)c1OC`, the TGI was 54.1 µM and 19.6 µM.

In turn, `CN(NC(=O)c1cccs1)C1=NCCCN1` registered a TGI above 100 µM.

Molecule `CCCCCC(=O)NC(=S)Nc1nn[nH]n1` came in with a TGI above 100 µM.
